Data published in ChEMBL document CHEMBL5053508, “Optimization of Beclin 1-Targeting Stapled Peptides by Staple Scanning Leads to Enhanced Antiproliferative Potency in Cancer Cells” (J Med Chem, 2021).
Active and inactive are the calls of the source. No cut-off for these calls is given here.

Columns and labels:
SK-BR-3 [1] = assay: Induction of apoptosis in human SK-BR-3 cells assessed as increase in cleaved caspase-3 expression at 0.15 uM incubated for 48 hrs by western blot analysis; assay type: functional, cell-based
SK-BR-3 [2] = assay: Induction of apoptosis in human SK-BR-3 cells assessed as increase in cleaved PARP expression at 0.15 uM incubated for 48 hrs by western blot analysis; assay type: functional, cell-based
Beclin-1 = Beclin-1 (Homo sapiens, UniProt Q14457); assay: Binding affinity to Beclin 1 coiled coil domain (unknown origin) by isothermal titration calorimetry assay
HEK-293T = assay: Cytotoxicity against HEK293T cells assessed as reduction in cell viability at 10 to 20 uM measured after 24 hrs by trypan blue exclusion assay; assay type: cell-based; settings: human, dose 10-20 µM
SK-BR-3 [3] = assay: Antiproliferative activity against human SK-BR-3 cells assessed as reduction in cell growth incubated for 5 days by trypan blue exclusion assay; assay type: functional, cell-based; settings: time 5.0 day
SK-BR-3 [4] = assay: Antiproliferative activity against human SK-BR-3 cells assessed as reduction of cell growth measured after 24 hrs by trypan blue exclusion assay; settings: SK-BR-3, 24 h

Chain of Beclin-1 (Q14457 whole entry, the tested form may be a part): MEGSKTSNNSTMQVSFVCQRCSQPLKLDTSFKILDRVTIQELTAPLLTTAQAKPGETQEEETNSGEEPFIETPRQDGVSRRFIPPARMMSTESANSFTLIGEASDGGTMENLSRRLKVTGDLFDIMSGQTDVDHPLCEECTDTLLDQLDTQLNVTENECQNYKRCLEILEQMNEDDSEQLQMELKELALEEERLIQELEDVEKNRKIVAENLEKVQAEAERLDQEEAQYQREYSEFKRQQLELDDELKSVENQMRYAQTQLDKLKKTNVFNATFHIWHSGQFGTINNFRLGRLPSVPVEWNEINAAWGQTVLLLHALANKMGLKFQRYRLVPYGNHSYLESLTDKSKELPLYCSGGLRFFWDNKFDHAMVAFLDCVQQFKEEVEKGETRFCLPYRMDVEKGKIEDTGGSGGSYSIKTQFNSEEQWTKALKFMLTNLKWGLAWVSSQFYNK

Row | SMILES | Activity (Beclin-1) | Kd (Beclin-1) | other results
1 | CC(=O)O[C@H]1C(=O)[C@@]2(C)[C@H]([C@H](OC(=O)c3ccccc3)[C@]3(O)C[C@H](OC(=O)[C@H](O)[C@@H](NC(=O)c4ccccc4)c4ccccc4)C(C)=C1C3(C)C)[C@]1(OC(C)=O)CO[C@@H]1C[C@@H]2O |  |  | Activity (SK-BR-3 [1]): Active; Activity (SK-BR-3 [2]): Active
2 | CC(=O)N[C@@H](Cc1ccc(O)cc1)C(=O)NCC(=O)N[C@@H](CCCNC(=N)N)C(=O)N[C@@H](CCCCN)C(=O)N[C@@H](CCCCN)C(=O)N[C@@H](CCCNC(=N)N)C(=O)N[C@@H](CCCNC(=N)N)C(=O)N[C@@H](CCC(N)=O)C(=O)N[C@@H](CCCNC(=N)N)C(=O)N[C@@H](CCCNC(=N)N)C(=O)N[C@@H](CCCNC(=N)N)C(=O)N[C@@H](CCCNC(=N)N)C(=O)N[C@@H](CC(C)C)C(=O)N[C@@H](CC(C)C)C(=O)N[C@@H](CCC(N)=O)C(=O)N[C@@H]1CCCCCC/C=C/CCC[C@@H](C(=O)N[C@@H](CCCNC(=N)N)C(=O)N[C@@H](CO)C(=O)N[C@H](C(N)=O)C(C)C)NC(=O)[C@H](CCCCN)NC(=O)[C@H](CC(C)C)NC(=O)[C@H](C(C)C)NC(=O)[C@H]([C@@H](C)O)NC(=O)[C@H](CCCCN)NC(=O)[C@H](CC(C)C)NC1=O | inactive |  | 
3 | CC[C@H](C)[C@H](NC(=O)[C@@H](NC(=O)[C@H](CCCNC(=N)N)NC(=O)[C@H](CCCNC(=N)N)NC(=O)[C@H](CCCNC(=N)N)NC(=O)[C@H](CCCNC(=N)N)NC(=O)[C@H](CCC(N)=O)NC(=O)[C@H](CCCNC(=N)N)NC(=O)[C@H](CCCNC(=N)N)NC(=O)[C@H](CCCCN)NC(=O)[C@H](CCCCN)NC(=O)[C@H](CCCNC(=N)N)NC(=O)CNC(=O)[C@H](Cc1ccc(O)cc1)NC(C)=O)C(C)C)C(=O)N[C@@H](CCC(N)=O)C(=O)N[C@@H]1CCCCCC/C=C/CCC[C@@H](C(=O)N[C@@H](CCCNC(=N)N)C(=O)N[C@@H](CC(=O)O)C(=O)N[C@H](C(N)=O)C(C)C)NC(=O)[C@H](CCCCN)NC(=O)[C@H](CCC(=O)O)NC(=O)[C@H]([C@@H](C)CC)NC(=O)[C@H]([C@@H](C)CC)NC(=O)[C@H](C(C)C)NC(=O)[C@H](CC(C)C)NC1=O |  |  | Activity (HEK-293T): Non-Toxic; Activity (SK-BR-3 [3]): Dose-dependent effect; IC50 (SK-BR-3 [4]): 13.6 µM
4 | CC[C@H](C)[C@H](NC(=O)[C@H](CC(C)C)NC(=O)[C@H](CCCNC(=N)N)NC(=O)[C@H](CCCNC(=N)N)NC(=O)[C@H](CCCNC(=N)N)NC(=O)[C@H](CCCNC(=N)N)NC(=O)[C@H](CCC(N)=O)NC(=O)[C@H](CCCNC(=N)N)NC(=O)[C@H](CCCNC(=N)N)NC(=O)[C@H](CCCCN)NC(=O)[C@H](CCCCN)NC(=O)[C@H](CCCNC(=N)N)NC(=O)CNC(=O)[C@H](Cc1ccc(O)cc1)NC(C)=O)C(=O)N[C@@H](CO)C(=O)N[C@@H](CCC(=O)O)C(=O)N[C@@H](CC(C)C)C(=O)N[C@@H]1CCCCCC/C=C/CCC[C@@H](C(=O)N[C@@H](C)C(N)=O)NC(=O)[C@H](CCCNC(=N)N)NC(=O)[C@H](CCC(N)=O)NC(=O)[C@H](CCCCN)NC(=O)[C@H](CCC(=O)O)NC(=O)[C@H](CCCNC(=N)N)NC(=O)[C@H](CC(=O)O)NC1=O |  | 3.21 µM | 
5 | CC[C@H](C)[C@H](NC(=O)[C@H](Cc1ccccc1)NC(=O)[C@H](CCCNC(=N)N)NC(=O)[C@H](CCCNC(=N)N)NC(=O)[C@H](CCCNC(=N)N)NC(=O)[C@H](CCCNC(=N)N)NC(=O)[C@H](CCC(N)=O)NC(=O)[C@H](CCCNC(=N)N)NC(=O)[C@H](CCCNC(=N)N)NC(=O)[C@H](CCCCN)NC(=O)[C@H](CCCCN)NC(=O)[C@H](CCCNC(=N)N)NC(=O)CNC(=O)[C@H](Cc1ccc(O)cc1)NC(C)=O)C(=O)N[C@@H](CCC(N)=O)C(=O)N[C@@H]1CCCCCC/C=C/CCC[C@@H](C(=O)N[C@@H](CCCNC(=N)N)C(=O)N[C@@H](CO)C(=O)N[C@H](C(N)=O)C(C)C)NC(=O)[C@H](CCCCN)NC(=O)[C@H]([C@@H](C)CC)NC(=O)[C@H](C(C)C)NC(=O)[C@H](C(C)C)NC(=O)[C@H](CCC(=O)O)NC(=O)[C@H](CC(C)C)NC1=O | inactive |  | 

Now from value to compound, other results behind:

Row | Activity (Beclin-1) | Kd (Beclin-1) | SMILES | other results
6 |  | 356 µM | CC[C@H](C)[C@H](NC(=O)[C@H](CC(C)C)NC(=O)[C@H](CCCNC(=N)N)NC(=O)[C@H](CCCNC(=N)N)NC(=O)[C@H](CCCNC(=N)N)NC(=O)[C@H](CCCNC(=N)N)NC(=O)[C@H](CCC(N)=O)NC(=O)[C@H](CCCNC(=N)N)NC(=O)[C@H](CCCNC(=N)N)NC(=O)[C@H](CCCCN)NC(=O)[C@H](CCCCN)NC(=O)[C@H](CCCNC(=N)N)NC(=O)CNC(=O)[C@H](Cc1ccc(O)cc1)NC(C)=O)C(=O)N[C@H](C(=O)N[C@@H]1CCCCCC/C=C/CCC[C@@H](C(=O)N[C@@H](CCCNC(=N)N)C(=O)N[C@@H](CCCCN)C(=O)N[C@@H](CCCNC(=N)N)C(N)=O)NC(=O)[C@H](CCCCN)NC(=O)[C@H](CCC(=O)O)NC(=O)[C@H](C(C)C)NC(=O)[C@H](CC(=O)O)NC(=O)[C@H](CCC(=O)O)NC(=O)[C@H](CCC(N)=O)NC1=O)[C@@H](C)CC | 
7 | inactive |  | CC[C@H](C)[C@H](NC(=O)[C@H](CC(C)C)NC(=O)[C@H](CCCNC(=N)N)NC(=O)[C@H](CCCNC(=N)N)NC(=O)[C@H](CCCNC(=N)N)NC(=O)[C@H](CCCNC(=N)N)NC(=O)[C@H](CCC(N)=O)NC(=O)[C@H](CCCNC(=N)N)NC(=O)[C@H](CCCNC(=N)N)NC(=O)[C@H](CCCCN)NC(=O)[C@H](CCCCN)NC(=O)[C@H](CCCNC(=N)N)NC(=O)CNC(=O)[C@H](Cc1ccc(O)cc1)NC(C)=O)C(=O)N[C@@H](CCC(N)=O)C(=O)N[C@@H]1CCCCCC/C=C/CCC[C@@H](C(=O)N[C@@H](CCCNC(=N)N)C(=O)N[C@@H](CCCCN)C(=O)N[C@@H](CCCNC(=N)N)C(N)=O)NC(=O)[C@H](CCCCN)NC(=O)[C@H](CCC(=O)O)NC(=O)[C@H](C(C)C)NC(=O)[C@H](CC(=O)O)NC(=O)[C@H](CCC(=O)O)NC(=O)[C@H](CCCNC(=N)N)NC1=O | 
8 |  | 311 µM | CC[C@H](C)[C@H](NC(=O)[C@H](CC(C)C)NC(=O)[C@H](C)NC(=O)[C@H](CCCNC(=N)N)NC(=O)[C@H](CCCNC(=N)N)NC(=O)[C@H](CCCNC(=N)N)NC(=O)[C@H](CCC(N)=O)NC(=O)[C@H](CCCNC(=N)N)NC(=O)[C@H](CCCNC(=N)N)NC(=O)[C@H](CCCCN)NC(=O)[C@H](CCCCN)NC(=O)[C@H](CCCNC(=N)N)NC(=O)CNC(=O)[C@H](Cc1ccc(O)cc1)NC(C)=O)C(=O)N[C@@H](CCC(N)=O)C(=O)N[C@@H]1CCCCCC/C=C/CCC[C@@H](C(=O)N[C@@H](CCCNC(=N)N)C(=O)N[C@@H](CCCCN)C(=O)N[C@@H](CCCNC(=N)N)C(N)=O)NC(=O)[C@H](CCCCN)NC(=O)[C@H](CCC(=O)O)NC(=O)[C@H](C(C)C)NC(=O)[C@H](CC(=O)O)NC(=O)[C@H](CCC(=O)O)NC(=O)[C@H](CCC(N)=O)NC1=O | 
